# Results reported in patent publication US8445207B2, “Genes based on thalidomide, valproic acid and methotrexate treatment for screening of drug inducing teratogenicity and screening method using thereof” (priority 2009, dated 2013).
# Tested on: JEG-3 (human placental choriocarcinoma cell line)
# Assay: Oligo microarray gene expression in drug-treated JEG-3 (Cy5 treated / Cy3 control)
# Assay type: cell-based
# Procedure: Thalidomide, valproic acid, and methotrexate were treated to human placental choriocarcinoma cell line at the concentrations determined above (Inhibition concentration: the concentration that can kill approximately 30% of the total cells, that is the concentration of 70% viability, IC30). mRNA was extracted from the drug treated cell line, followed by synthesis of cDNA which was labeled with Cy5. The non-treated control was labeled with Cy3. The fluorescence labeled cDNA was hybridized with 41K (thalidomide), 44K (valproic acid, methotrexate) human whole genome oligomicroarray chips (Agilent, USA), followed by fluorescent image scanning to analyze gene expression patterns (see FIG. 4). Volcano Plot of each substance was also attached. Y axis indicates probability (generally converted by −log 10). X axis indicates differential expression, which is presented by log-ratio.
# Total RNA was separated from the treated cell by using trizol reagent (Invitrogen Life Technologies, USA) according to the manufacture's instructions, followed by purification using RNeasy mini kit (Qiagen, USA). Genomic DNA was eliminated during RNA purification using RNase-free DNase set (Qiagen, USA).
# 30 μg of the total RNA obtained above and 2 μg (1 μg/μl) of oligo (dT) primer were mixed, followed by reaction at 65° C. for 10 minutes. Annealing was performed in ice right after the reaction. Reagents were prepared as shown in Table 1 for reverse transcription of the annealed RNA.
# The total RNA separated from the control group JEG-3 cells was labeled with Cy3-dUTP (green) and the total RNA separated from the experiment group JEG-3 cells treated with thalidomide, valproic acid and methotrexate was labeled with Cy5-dUTP (red). At this time, the two samples were mixed and purified by Microcon YM-30 column (Millipore, USA).
# Hybridization and washing were performed by the manufacturer's (GenoCheck, Korea) instructions. Particularly, hybridization was performed in a 62° C. oven for 12 hours. As a DNA microarray chip, 44 k whole human genome oligo microarray (Agilent, USA) was used. After washing (2 minutes with 2×SSC/0.1% SDS, three minutes with 1×SSC, 2 minutes with 0.2×SSC), the slide was dried by centrifugation at 800 rpm for 3 minutes.
# Hybridization image on the slide was scanned with Genepix 4000B (Axon Instruments, USA). Fluorescence image of the chip on which non-hybridized genes had been washed out was obtained by using laser fluorescence scanner. Green fluorescence image indicates the activity of gene specifically expressed in the control group and red fluorescence image indicates the activity of gene specifically expressed in the experimental group. […] Scanned image was analyzed by using GenePix 4.1 software (Axon Instruments, USA) to calculate gene expression rate.
# [1] = out of 21797 (thalidomide), 21921 (valproic acid), 24006 (methotrexate) genes
# [2] = treated at IC30, up-regulated gene, (h) Nervous system development
smiles,measurement,setting,value
"CCCC(CCC)C(=O)O [VPA, valproic acid]","cDNA microarray (Cy3/Cy5 ratio), KIAA0310",GenBank AB002308,1.59
same,"cDNA microarray (Cy3/Cy5 ratio), ATP10B",GenBank AB018258,2.03
same,"cDNA microarray (Cy3/Cy5 ratio), TTF2",GenBank AB209845,1.81
same,"cDNA microarray (Cy3/Cy5 ratio), TncRNA",GenBank AF001893,3.61
same,"cDNA microarray (Cy3/Cy5 ratio), C4orf19",GenBank AK001879,1.87
same,"cDNA microarray (Cy3/Cy5 ratio), CYP19A1",GenBank AK023571,1.78
same,"cDNA microarray (Cy3/Cy5 ratio), SLC40A1",GenBank AK023574,1.7
same,"cDNA microarray (Cy3/Cy5 ratio), ABTB2",GenBank AK095632,1.6
same,"cDNA microarray (Cy3/Cy5 ratio), TUBB3",GenBank AK122757,1.7
same,"cDNA microarray (Cy3/Cy5 ratio), MGC27016",GenBank AK125877,2.62
same,"cDNA microarray (Cy3/Cy5 ratio), GLCCI1",GenBank AK126731,2.27
same,"cDNA microarray (Cy3/Cy5 ratio), TFCP2L4",GenBank BC036890,3.12
same,"cDNA microarray (Cy3/Cy5 ratio), RGS2",GenBank BC042755,3.04
same,"cDNA microarray (Cy3/Cy5 ratio), SIAT7A",GenBank BC063830,1.69
same,"cDNA microarray (Cy3/Cy5 ratio), B7-H4",GenBank BX648021,0.1
same,"cDNA microarray (Cy3/Cy5 ratio), COBLL1",GenBank BX649112,1.52
same,"cDNA microarray (Cy3/Cy5 ratio), CGA",GenBank NM_000735,2.14
same,"cDNA microarray (Cy3/Cy5 ratio), PARP1",GenBank NM_001618,0.61
same,"cDNA microarray (Cy3/Cy5 ratio), SERPINB9",GenBank NM_004155,3.02
same,"cDNA microarray (Cy3/Cy5 ratio), ST8SIA4",GenBank NM_005668,1.79
same,"cDNA microarray (Cy5 treated / Cy3 control ratio), ABL1",GenBank NM_007313,0.3
same,"cDNA microarray (Cy3/Cy5 ratio), GRLF1",GenBank NM_024342,0.55
same,"cDNA microarray (Cy3/Cy5 ratio), LGP1",GenBank NM_032484,0.52
same,"cDNA microarray (Cy3/Cy5 ratio), NCOA3",GenBank NM_181659,1.62
same,"cDNA microarray (Cy3/Cy5 ratio), SR140",GenBank XM_031553,0.36
same,"cDNA microarray (Cy3/Cy5 ratio), SLC7A8",GenBank Y18483,2.48
same,"Ratio of intermediate value, FLJ13855","Genbank AK091644, drug at IC30",0.44
same,"Ratio of intermediate value, GRLF1","Genbank BI494022, NM_024342, drug at IC30",0.55
same,"Ratio of intermediate value, B7-H4","Genbank BX648021, drug at IC30",0.10
same,"Ratio of intermediate value, PARP1","Genbank NM_001618, drug at IC30",0.61
same,"Ratio of intermediate value, ABL1","Genbank NM_007313, drug at IC30",0.30
same,"Ratio of intermediate value, LGP1","Genbank NM_032484, drug at IC30",0.52
same,"Ratio of intermediate value, SR140","Genbank XM_031553, drug at IC30",0.36
same,genes down-regulated (ratio of intermediate value less than 0.666),"JEG-3, drug at IC30, 48 hours",5.5%
same,genes up-regulated (ratio of intermediate value more than 1.5),"JEG-3, drug at IC30, 48 hours",5.54%
same,number of genes down-regulated,[1],1196
same,number of genes up-regulated,[1],1215
same,"Ratio of intermediate value, gene ALDH5A1 (NM_170740, ALDEHYDE DEHYDROGENASE 5 FAMILY, MEMBER A1 (SUCCINATE-SEMIALDEHYDE DEHYDROGENASE))",[2],4.68
same,"Ratio of intermediate value, gene ALS2 (NM_020919, AMYOTROPHIC LATERAL SCLEROSIS 2 (JUVENILE))",[2],2.40
same,"Ratio of intermediate value, gene C22orf9 (AY509035, ROUND-ABOUT, AXON GUIDANCE RECEPTOR, HOMOLOG 3 (DROSOPHILA))",[2],2.30
same,"Ratio of intermediate value, gene DLX2 (AB208823, NM_004405, DISTAL-LESS HOMEOBOX 2)",[2],3.18
same,"Ratio of intermediate value, gene DPYSL2 (NM_001386, DIHYDROPYRIMIDINASE-LIKE 2)",[2],3.34
same,"Ratio of intermediate value, gene DPYSL5 (AL713706, DIHYDROPYRIMIDINASE-LIKE 5)",[2],2.57
same,"Ratio of intermediate value, gene EDG1 (BC018650, ENDOTHELIAL DIFFERENTIATION, SPHINGOLIPID G-PROTEIN-COUPLED RECEPTOR, 1)",[2],2.34
same,"Ratio of intermediate value, gene EFCBP1 (L20470, VERY LOW DENSITY LIPOPROTEIN RECEPTOR)",[2],2.10
same,"Ratio of intermediate value, gene FABP7 (NM_001446, FATTY ACID BINDING PROTEIN 7, BRAIN)",[2],9.51
same,"Ratio of intermediate value, gene FLJ20489 (AK056650, IMMUNOGLOBULIN SUPERFAMILY, MEMBER 9)",[2],2.50
same,"Ratio of intermediate value, gene FLJ31842 (AY643499, HEXOSAMINIDASE B (BETA POLYPEPTIDE))",[2],2.38
same,"Ratio of intermediate value, gene GJA1 (NM_000165, GAP JUNCTION PROTEIN, ALPHA 1, 43 KDA (CONNEXIN 43))",[2],4.30
same,"Ratio of intermediate value, gene GRB14 (BM906235, INHIBITOR OF DNA BINDING 3, DOMINANT NEGATIVE HELIX-LOOP-HELIX PROTEIN)",[2],4.33
